Results on 22 molecules are retold here after PubChem BioAssay AID330 (DTP/NCI, 2004).

The structures appear in SMILES notation. Values joined by “and” are separate entries in the source; they are usually repeats but may differ in a detail not shown here. Equal entries are not always repeated. Inconclusive results and toxic doses are left out.

For the assay, the system named is P388 leukemia ip, CD2F1 mice, survival T/C. Kind of assay: NCI In Vivo Anticancer Drug Screen. Data for tumor model P388 Leukemia (intraperitoneal) in CD2F1 (CDF1) mice. As to conditions: endpoint: median survival time, higher = longer survival. An outline of the steps: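 Mice carrying the transplanted tumor received test compound or vehicle. Survival was recorded in each group, and the value is the treated-group measurement divided by that of the vehicle-treated control group.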

The mark [1] stands for this setting: dose: 50.0 mg/kg/injection, schedule: Q01DX005 (ip), vehicle: saline with Tween-80.
Setting [2] is: dose: 100.0 mg/kg/injection, schedule: Q01DX005 (ip), vehicle: saline with Tween-80.
The mark [3] stands for this setting: dose: 50.0 mg/kg/injection, schedule: Q01DX005 (ip), vehicle: saline.
Where [4] appears, read: dose: 200.0 mg/kg/injection, schedule: Q01DX005 (ip), vehicle: Klucel (hydroxypropylcellulose) (HPC).
The mark [5] stands for this setting: dose: 100.0 mg/kg/injection, schedule: Q01DX009 (ip), vehicle: saline with Tween-80.

With `c1ccc2c(Nc3nccs3)c3ccccc3nc2c1`, the T/C by setting is: (dose: 12.5 mg/kg/injection, schedule: Q04DX002 (ip), vehicle: distilled water + Tween-80) 96 % of control; (dose: 25.0 mg/kg/injection, schedule: Q04DX002 (ip), vehicle: distilled water + Tween-80) 96 % of control; (dose: 50.0 mg/kg/injection, schedule: Q04DX002 (ip), vehicle: distilled water + Tween-80) 88 % of control; (dose: 100.0 mg/kg/injection, schedule: Q04DX002 (ip), vehicle: distilled water + Tween-80) 94 % of control; (dose: 200.0 mg/kg/injection, schedule: Q04DX002 (ip), vehicle: distilled water + Tween-80) 98 % of control; (dose: 400.0 mg/kg/injection, schedule: Q04DX002 (ip), vehicle: distilled water + Tween-80) 103 % of control.
On to `O=S1(N2CC2)=NP(N2CC2)(N2CC2)=NP(N2CC2)(N2CC2)=N1` (stereo unspecified), for which the T/C was 168 % of control (dose: 100.0 mg/kg/injection, schedule: Q04DX002 (ip), vehicle: saline) and 198 % of control (dose: 150.0 mg/kg/injection, schedule: Q04DX002 (ip), vehicle: saline).
As to `CCN(CC)CCOc1ccc(C)c(C)c1`, the T/C under setting [1] is 106 % of control and the T/C under setting [2] was 103 % of control.
As for `CC(C)CC(C(=O)O)N(CC(=O)O)CC(=O)O` (stereo unspecified), the T/C is, setting by setting: (dose: 12.5 mg/kg/injection, schedule: Q01DX005 (ip), vehicle: saline) 97 % of control; (dose: 25.0 mg/kg/injection, schedule: Q01DX005 (ip), vehicle: saline) 87 % of control; under setting [3], 98 % of control.
Regarding `OC(COc1c2ccccc2nc2ccccc12)CN1CCN(c2cccc(Cl)c2)CC1` (stereo unspecified), the T/C was 90 % of control under setting [1]; 88 % of control under setting [2]; 90 % of control (dose: 200.0 mg/kg/injection, schedule: Q01DX005 (ip), vehicle: saline with Tween-80).
Consider `c1ccc(C[N+]23CCC(CC2)C3c2ccccc2)cc1` (stereo unspecified), for which the T/C is 103 % of control (dose: 3.75 mg/kg/injection, schedule: Q01DX005 (ip), vehicle: saline); 103 % of control (dose: 7.5 mg/kg/injection, schedule: Q01DX005 (ip), vehicle: saline); 104 % of control (dose: 15.0 mg/kg/injection, schedule: Q01DX005 (ip), vehicle: saline).
As for `Cc1cccc(N=Nc2c(C)nn(C(=S)S)c2C)c1C`, the T/C is, setting by setting: (dose: 100.0 mg/kg/injection, schedule: Q04DX002 (ip), vehicle: saline with Tween-80) 100 % of control; (dose: 200.0 mg/kg/injection, schedule: Q04DX002 (ip), vehicle: saline with Tween-80) 99 % of control; (dose: 400.0 mg/kg/injection, schedule: Q04DX002 (ip), vehicle: saline with Tween-80) 98 % of control.
For the molecule `C/C=C(\CC[Se]c1ccccc1)C(=O)OC`, the T/C runs as follows: (dose: 50.0 mg/kg/injection, schedule: Q01DX009 (ip), vehicle: distilled water + Tween-80 + alcohol) 108 % of control; (dose: 100.0 mg/kg/injection, schedule: Q01DX009 (ip), vehicle: distilled water + Tween-80 + alcohol) 98 % of control; (dose: 200.0 mg/kg/injection, schedule: Q01DX009 (ip), vehicle: distilled water + Tween-80 + alcohol) 106 % of control.
For `C=C1C(=O)OC2CCCC(O)C12` (stereo unspecified), the T/C runs as follows: (dose: 50.0 mg/kg/injection, schedule: Q04DX003 (ip), vehicle: Klucel (hydroxypropylcellulose) (HPC)) 106 % of control and 96 % of control; (dose: 100.0 mg/kg/injection, schedule: Q04DX003 (ip), vehicle: Klucel (hydroxypropylcellulose) (HPC)) 104 % of control; (dose: 200.0 mg/kg/injection, schedule: Q04DX003 (ip), vehicle: Klucel (hydroxypropylcellulose) (HPC)) 115 % of control.
Turning to `CC(=O)NS(=O)(=O)c1ccc(N=NC2=C(O)C(c3ccccc3)N(c3ccccc3)C2=O)cc1` (stereo unspecified), the T/C reads like this: (dose: 60.0 mg/kg/injection, schedule: Q01DX005 (ip), vehicle: saline with Tween-80) 96 % of control; (dose: 120.0 mg/kg/injection, schedule: Q01DX005 (ip), vehicle: saline with Tween-80) 91 % of control.
On to `CC(C)Sc1ncn[nH]1`, for which the T/C was 99 % of control under setting [3]; 100 % of control (dose: 100.0 mg/kg/injection, schedule: Q01DX005 (ip), vehicle: saline); 102 % of control (dose: 200.0 mg/kg/injection, schedule: Q01DX005 (ip), vehicle: saline).
For the molecule `COc1ccc2ncc(CO)c(CO)c2c1`, the T/C under setting [4] is 100 % of control.
`COc1cc(O)c(C/C=C/c2ccccc2)cc1O`: the T/C is 102 % of control (dose: 2.5 mg/kg/injection, schedule: Q01DX009 (ip), vehicle: saline with Tween-80); 105 % of control (dose: 5.0 mg/kg/injection, schedule: Q01DX009 (ip), vehicle: saline with Tween-80); 103 % of control (dose: 10.0 mg/kg/injection, schedule: Q01DX009 (ip), vehicle: saline with Tween-80).
With `[CH3][Ge]([CH3])[CH3].[CH3][Ge]([CH3])[CH3]`, the T/C was 95 % of control (dose: 50.0 mg/kg/injection, schedule: Q01DX009 (ip), vehicle: saline); 91 % of control (dose: 100.0 mg/kg/injection, schedule: Q01DX009 (ip), vehicle: saline); 97 % of control (dose: 200.0 mg/kg/injection, schedule: Q01DX009 (ip), vehicle: saline).
In the case of `CC1(C)CC2(OC2c2ccccc2[N+](=O)[O-])C(=O)c2ccccc21` (stereo unspecified), the T/C was 100 % of control under setting [5]; 100 % of control (dose: 200.0 mg/kg/injection, schedule: Q01DX009 (ip), vehicle: saline with Tween-80); 100 % of control (dose: 400.0 mg/kg/injection, schedule: Q01DX009 (ip), vehicle: saline with Tween-80).
In the case of `N#CN(Cc1ccccc1)C(c1ccccc1)(c1ccccc1)c1ccccc1.[Cl][Sn]([c]1ccccc1)([c]1ccccc1)[c]1ccccc1`, the T/C was 91 % of control (dose: 3.12 mg/kg/injection, schedule: Q01DX005 (ip), vehicle: saline with Tween-80); 98 % of control (dose: 6.25 mg/kg/injection, schedule: Q01DX005 (ip), vehicle: saline with Tween-80); 91 % of control (dose: 12.5 mg/kg/injection, schedule: Q01DX005 (ip), vehicle: saline with Tween-80).
On to `COC(=O)C1C2COc3ccccc3C2=NC1c1ccc([N+](=O)[O-])cc1` (stereo unspecified), for which the T/C was 91 % of control (dose: 25.0 mg/kg/injection, schedule: Q01DX001 (ip), vehicle: Klucel (hydroxypropylcellulose) (HPC)); 96 % of control (dose: 50.0 mg/kg/injection, schedule: Q01DX001 (ip), vehicle: Klucel (hydroxypropylcellulose) (HPC)); 95 % of control (dose: 100.0 mg/kg/injection, schedule: Q01DX001 (ip), vehicle: Klucel (hydroxypropylcellulose) (HPC)).
Take `CC(C)(C)n1nc(C2CC2)c(Br)c1NC(=O)c1ccc(Cl)cc1`: the T/C (dose: 30.0 mg/kg/injection, schedule: Q01DX005 (ip), vehicle: Klucel (hydroxypropylcellulose) (HPC)) is 109 % of control; the T/C (dose: 60.0 mg/kg/injection, schedule: Q01DX005 (ip), vehicle: Klucel (hydroxypropylcellulose) (HPC)) was 96 % of control; the T/C (dose: 120.0 mg/kg/injection, schedule: Q01DX005 (ip), vehicle: Klucel (hydroxypropylcellulose) (HPC)) is 101 % of control; the T/C (dose: 240.0 mg/kg/injection, schedule: Q01DX005 (ip), vehicle: Klucel (hydroxypropylcellulose) (HPC)) is 98 % of control.
`CCCCOC(=O)c1ccccn1`: the T/C was 95 % of control (dose: 50.0 mg/kg/injection, schedule: Q04DX003 (ip), vehicle: saline with Tween-80); 100 % of control (dose: 100.0 mg/kg/injection, schedule: Q04DX003 (ip), vehicle: saline with Tween-80); 95 % of control (dose: 200.0 mg/kg/injection, schedule: Q04DX003 (ip), vehicle: saline with Tween-80).
For the molecule `O=C1CSC=C(c2ccccc2)O1`, the T/C is 108 % of control (dose: 12.5 mg/kg/injection, schedule: Q01DX009 (ip), vehicle: saline with Tween-80); 110 % of control (dose: 25.0 mg/kg/injection, schedule: Q01DX009 (ip), vehicle: saline with Tween-80); 109 % of control (dose: 50.0 mg/kg/injection, schedule: Q01DX009 (ip), vehicle: saline with Tween-80); 104 % of control under setting [5].
On to `CC(=O)N(CCCCCCN(C(C)=O)C(C)=O)C(C)=O`, for which the T/C is 96 % of control (dose: 50.0 mg/kg/injection, schedule: Q01DX005 (ip), vehicle: Klucel (hydroxypropylcellulose) (HPC)); 105 % of control (dose: 100.0 mg/kg/injection, schedule: Q01DX005 (ip), vehicle: Klucel (hydroxypropylcellulose) (HPC)); 92 % of control under setting [4]; 94 % of control (dose: 400.0 mg/kg/injection, schedule: Q01DX005 (ip), vehicle: Klucel (hydroxypropylcellulose) (HPC)).
With `CC(C)=CCc1cc(O)c(C)cc1O`, the T/C reads like this: (dose: 12.5 mg/kg/injection, schedule: Q01DX009 (ip), vehicle: distilled water + Tween-80 + alcohol) 99 % of control; (dose: 25.0 mg/kg/injection, schedule: Q01DX009 (ip), vehicle: distilled water + Tween-80 + alcohol) 91 % of control.
